We go through two molecules from US6815664B2, “Method for separation of particles” (Genoptix, Inc., priority 2001, dated 2004).

In assay [1] the test system is K562 Cells. The experiment in a line: Escape velocity of cells in a moving optical gradient field (1064 system, CYTOP coated coverslips). Particulars: K562 cells (chronic myelogenous leukemia, lymphoblast), 26 Hr. Taxol treatment; untreated K562 10.0 +/− 0.7. Format: cell-based. An excerpt:
Certain of the data reported herein were generated with the following setup. Optical gradient fields were generated using a Michelson interferometer and either a 150 mW, 812 nm laser (812 system) or a 2.5 W, 1064 nm laser (1064 system). The 812 system used a 100× (1.25 NA) oil immersion lens to focus the fringe pattern and to visualize the sample. The 1064 system used a 20× objective to focus the fringes and a 60× objective to visualize the sample. In general the sample cell was a coated microscope slide and/or coverslip that was sealed with Vaseline. Coverslip spacers controlled the height of the cell at approximately 150 micrometers
Separation By Refractive Index—Polystyrene, polymethylmethacrylate and silica particles of similar size (˜5 micrometer diameter, Bangs Labs) and refractive indexes of 1.59, 1.49 and 1.37, respectively, were sorted by moving optical gradient fields. Observed escape velocities for polystyrene, PMMA and silica were 44, 47 and 32 micrometers/second, respectively. […] The numerical results provided herein are meant to provide measured data for the system actually used, and are not to be considered a limitation on the values which might exist in a different system.
Escape velocities were measured using a gradient field generated by the 1064 system on CYTOP coated coverslips.

Assay [2] relates to U937 cells. The experiment in a line: Escape velocity of treated and untreated leukemia cells. The class given is cell-based. Particulars: PMA 5 ug/mL, 37° C., treated for 6 hours. An excerpt:
Separation By Refractive Index—Polystyrene, polymethylmethacrylate and silica particles of similar size (˜5 micrometer diameter, Bangs Labs) and refractive indexes of 1.59, 1.49 and 1.37, respectively, were sorted by moving optical gradient fields. Observed escape velocities for polystyrene, PMMA and silica were 44, 47 and 32 micrometers/second, respectively. Briefly, a particle is aligned in the fringe and the fringes are moved at increasing speed until the particle slips. […] It will be appreciated by those skilled in the art that the absolute value of the escape velocity will differ depending upon system conditions, e.g., laser power. The numerical results provided herein are meant to provide measured data for the system actually used, and are not to be considered a limitation on the values which might exist in a different system.
PMA was dissolved in ethanol at a concentration of 5 mg/mL. 3 mls of U937 cells grown in RPMI 1640 media with supplements were removed from the culture flask and 1 ml was placed into each of three eppendorf tubes. Cells from the first tube were pelleted for 4 minutes at 10,000 rpm and resuspended in 250 uL PBS/1% BSA buffer for escape velocity measurements. PMA was added to the remaining two tubes of U937 cells to a final concentration of 5 ug/mL. These tubes were vortexed and placed in a 37° C. water bath for either one hour or six hours. […]

`CC(=O)O[C@H]1C(=O)[C@@]2(C)[C@H]([C@H](OC(=O)c3ccccc3)[C@]3(O)C[C@H](OC(=O)[C@H](O)[C@@H](NC(=O)c4ccccc4)c4ccccc4)C(C)=C1C3(C)C)[C@]1(OC(C)=O)CO[C@@H]1C[C@@H]2O` [Taxol]: the “Escape Velocity” value in assay [1] is given as 8.2 +/− 0.4 um/sec.

On to `CCCCCCCCCCCCCC(=O)O[C@@H]1[C@@H](C)[C@@]2(O)[C@@H](C=C(CO)C[C@]3(O)C(=O)C(C)=C[C@@H]23)[C@@H]2C(C)(C)[C@]12OC(C)=O` [PMA], for which the “escape velocity as compared to the untreated cells” value in assay [2] is reported as “significantly higher escape velocity”.
